In ChEMBL document CHEMBL1129630, “Synthesis and structure-activity relationships of retinoid X receptor selective diaryl sulfide analogs of retinoic acid” (J Med Chem, 1996):
pEC50: −log10 of the molar value.

System: HL-60
Experiment: Induction of transglutaminase (TGase) activity in HL-60 cells
Conditions: Homo sapiens

pEC50: < 6.00
Structure (SMILES): C/C(=C\c1ccc(C(=O)O)cc1)c1ccc2c(c1)C(C)(C)CCC2(C)C
